Broadly, the IC50 is the point on the concentration scale where inhibition reaches its midpoint.

Data set [1] has as its system axenic Leishmania donovani MHOM-ET-67/L82 amastigotes. In words: In vitro antiprotozoal assay, axenic amastigotes. The following applies: axenic amastigotes; read-out: L.don.ax. IC50. Type of data set: cell-based.
Procedure: (§3) The testing of the inventive compounds against Leishmania donovani (strain MHOM/ET/67/L82) was performed in 96 well plates at concentrations in serial dilutions. Tests were done in triplicate.
In data set [2] the test system is intracellular Leishmania donovani MHOM-ET-67/L82 amastigotes. The data set is described as follows: In vitro antiprotozoal assay, intracellular amastigotes. Type of data set: cell-based. Conditions: intracellular amastigotes; read-out: L.don.InMac IC50.
Procedure: as §3
For a further data set, the system named is rat myoblast cells (L6). The data set is described as follows: Cytotoxicity assay (Alamar Blue) on L6-cells. Format: cell-based. The protocol: (§1) Tests were done in triplicate.
(§2) The plates were incubated for additional 2 h.

For data set [3], the system named is Staphylococcus aureus ATCC BAA-1556, USA300 MRSA. In words: microbe, parasite or virus in culture. Type of data set: cell-based. Conditions: ATCC BAA-1556. How it is done: Pre-formulated compound solution was diluted in 100% DMSO to prepare a 1.6 mg/mL working stock solution. […] The concentration range was 0.032 to 32 μg/mL.
Data set [4] in a line: Cytotoxicity assay (Alamar Blue) on L6-cells. Format: cell-based, rat. The following applies: rat. The protocol:
as §1, §2
(Resazurin is reduced to fluorescent resorufin, in cell work by metabolically active cells.)

For data set [5], the system named is Staphylococcus aureus ATCC 43300, MRSA. Type of data set: cell-based. Conditions: ATCC 43300, 18 h. The protocol:
The antibacterial activity of inventive compounds was evaluated in duplicate in a further Minimum Inhibitory Concentration (MIC) assay.
Bacteria were cultured in Cation-adjusted Mueller Hinton broth (CAMHB) at 37° C. overnight. A sample of each culture was then diluted 40-fold in fresh broth and incubated at 37° C. for 1.5-3 h. The resultant mid-log phase cultures were diluted (CFU/mL measured by OD600), then added to each well of the compound containing plates, giving a cell density of 5×10^5 CFU/mL and a total volume of 50 μL. All the plates were covered and incubated at 37° C. for 18 h without shaking.
Samples were prepared in DMSO and serially diluted 2 fold 8 times. Each sample concentration was prepared in 384-well plates, non-binding surface plate (NBS; Corning 3640) for the bacterial strain ATCC 43300, MRSA. The final DMSO concentration was at a maximum of 0.5%.
Inhibition of bacterial growth was determined measuring absorbance at 600 nm (OD600), using a Tecan M1000 Pro monochromator plate reader. The percentage of growth inhibition was calculated for each well, using the negative control (media only) and positive control (bacteria without inhibitors) on the same plate as references. […] Vancomycin was used as positive bacterial inhibitor standards.

For data set [6], the system named is S. aureus (USA300 MRSA, BAA-1556). In words: S. aureus dermal infection model in ICR mice, CFU/skin. Type of data set: in vivo, Staphylococcus aureus. Conditions: 25 hours post inoculation; topical BID at 1 and 7 h post infection, 20 μL/mouse; 6027 1% in DMSO, fusidic acid 2%. The protocol:
Inoculum preparation. The testing strain, S. aureus USA300 MRSA (BAA-1556), was obtained from the frozen working stock and thawed at room temperature. A 0.2 mL aliquot was inoculated into 20 mL Brain-Heart Infusion broth (BHI) and then incubated at 35-37° C. with shaking (120 rpm) for 8 h. Bacterial cells in the 20 mL culture were pelleted by centrifugation at 3,500×g for 15 minutes and then re-suspended in 10 mL cold PBS (>8.0×10^9 CFU/mL, OD620 1.8-2.0). The culture was then diluted in PBS to the target inoculum of 1.0×10^7 CFU/mL. The actual bacterial counts were determined by plating dilutions onto nutrient agar (NA) plates followed by 20-24 h incubation and colony counting. The actual CFU counts were 1.04×10^7 CFU/mL.
S. aureus (USA300 MRSA, BAA-1556) dermal infection model. Groups of 5 female ICR mice weighing 24±2 g were used. Animals were anesthetized with etomidate-lipuro emulsion (20 mg/10 mL) at 20 mg/kg by intravenous (IV) injection, and then the fur on the back was removed by an electric shaver, and the epidermal layer was disrupted with an abrasive paper. Mice were inoculated topically (TOP) on the wound area with S. aureus (MRSA, BAA-1556) suspension, 5 μL/mouse. The target inoculation density was 5×10^4 CFU/mouse and the actual inoculum count 5.2×10^4 CFU/mouse. Animals were housed separately after infection. Compound 6027 in DMSO at 1% was administered topically (TOP) twice (BID) at 1 and 7 h post infection. Reference control agent, fusidic acid cream at 20 mg/gram (2%), was administered TOP BID at 1 and 7 h post infection. One infected and untreated group was sacrificed at 1 h after infection for the initial (baseline) bacterial counts. The dose volumes were 20 μL/mouse for all dosing groups.
Animals were sacrificed at 1 or 25 h after inoculation with CO2 asphyxiation. The infected skin samples of the wound infection (around 2 cm 2 areas) were excised and were homogenized in 1 mL PBS (pH 7.4) with a polytron homogenizer. A 0.1 mL aliquot of each homogenate was used for serial 10-fold dilutions and plated onto NA plates for bacterial enumeration. The bacterial counts (CFU/skin) in skin tissues were calculated and the percentage decrease in counts compared to the corresponding vehicle control (placebo) was calculated with the following formula: Decrease (%)=[(CFU/skin of placebo —CFU/skin of treatment)/(CFU/skin of placebo)]×100%.

Data set [7] deals with Staphylococcus aureus ATCC BAA-1556. In words: microbe, parasite or virus in culture. Type of data set: cell-based. Conditions: Staphylococcus aureus, ATCCBAA1556; reference compound; ATCC BAA-1556, Methicillin resistant; read-out: MIC (Concurrent).
For data set [8], the system named is Staphylococcus aureus ECL 2963646. In words: microbe, parasite or virus in culture. Type of data set: cell-based. The following applies: Staphylococcus aureus, ECL2963646, reference compound, read-out: MIC (Concurrent).
The test system of data set [9] is Staphylococcus aureus NARSA NRS22. The data set is described as follows: microbe, parasite or virus in culture. Format: cell-based. Conditions: Staphylococcus aureus, reference compound, read-out: MIC (Concurrent).
The test system of data set [10] is Staphylococcus aureus NARSA VRS2. In words: microbe, parasite or virus in culture. The following applies: Staphylococcus aureus, reference compound, read-out: MIC (Concurrent). Format: cell-based.

The structures appear in SMILES notation. ≈ marks a conversion by molar mass, not a printed value. Read-outs that look alike come from different tables or passages of the source. Square brackets hold non-standard residues; d marks the D form. Peptide text beside a SMILES is read from it. * marks the point of attachment. NH((S)CH(Me)CH2NMe2) = C[C@@H](CN(C)C)N*; NH(1-CH2NMe2-cBu) = CN(C)CC1(N*)CCC1; Gly(octyl) = CCCCCCCC[C@H](N)C(=O)O; Oxazole4CO(2-Me) = Cc1nc(C(=O)*)co1; hCha = N[C@@H](CCC1CCCCC1)C(=O)O; X8 = O=C(c1coc(-c2ccccc2)n1)*; Aib = CC(C)(N)C(=O)O; βAla = NCCC(=O)O

Take `CCCCCCCC[C@H](NC(=O)[C@@H]1CCCN1C(=O)c1coc(-c2ccccc2)n1)C(=O)N[C@@H](CC(C)C)C(=O)NC(C)(C)C(=O)N[C@@H](CC(C)C)C(=O)N[C@@H](CC(C)C)C(=O)NC(C)(C)C(=O)NC(C)(C)C(=O)NCCC(=O)N[C@@H](C)CN(C)C` [Compound 5906, (2S)-N-[(1S)-1-[(1-{[(1S)-1-{[(1S)-1-{[1-({1-[(2-{[(2S)-1-(dimethylamino)propan-2-yl]carbamoyl}ethyl)carbamoyl]-1-methylethyl}carbamoyl)-1-methylethyl]carbamoyl}-3-methylbutyl]carbamoyl}-3-methylbutyl]carbamoyl}-1-methylethyl)carbamoyl]-3-methylbutyl]-2-{[(2S)-1-(2-phenyl-1,3-oxazole-4-carbonyl)pyrrolidin-2-yl]formamido}decanamide] (X8-P[Gly(octyl)]L[Aib]LL[Aib][Aib][βAla]-{NH((S)CH(Me)CH2NMe2)}): the IC50 was 3.7 nM in [1], 14.1 nM in data set [2] and 445 nM with rat myoblast cells (L6).

`Cc1nc(C(=O)N2CCC[C@H]2C(=O)N[C@@H](CCC2CCCCC2)C(=O)N[C@@H](CC(C)C)C(=O)NC(C)(C)C(=O)N[C@@H](CC(C)C)C(=O)N[C@@H](CC(C)C)C(=O)NC(C)(C)C(=O)NC(C)(C)C(=O)NCCC(=O)NC2(CN(C)C)CCC2)co1` [Compound 6025, (2S)-2-[(2S)-4-cyclohexyl-2-{[(2S)-1-(2-methyl-1,3-oxazole-4-carbonyl)pyrrolidin-2-yl]formamido}butanamido]-N-(1-{[(1S)-1-{[(1S)-1-({1-[(1-{[2-({1-[(dimethylamino)methyl]cyclobutyl}carbamoyl)ethyl]carbamoyl}-1-methylethyl)carbamoyl]-1-methylethyl}carbamoyl)-3-methylbutyl]carbamoyl}-3-methylbutyl]carbamoyl}-1-methylethyl)-4-methylpentanamide] ({Oxazole4CO(2-Me)}-P[hCha]L[Aib]LL[Aib][Aib][βAla]-{NH(1-CH2NMe2-cBu)}): the IC50 in data set [1] is 9.9 nM; in [2], 41.1 nM; in the data set on rat myoblast cells (L6), 1910 nM. In addition, in [3], the “MIC” value stood at 4 µg/mL (≈ 3.43 µM).

For the compound `Cc1nc(C(=O)N2CCC[C@H]2C(=O)N[C@@H](CC2CCCCC2)C(=O)N[C@@H](CC(C)C)C(=O)NC(C)(C)C(=O)N[C@@H](CC(C)C)C(=O)N[C@@H](CC(C)C)C(=O)NC(C)(C)C(=O)NC(C)(C)C(=O)NCCC(=O)NC2(CN(C)C)CCC2)co1` [Compound 7059, (2S)-2-[(2S)-3-cyclohexyl-2-{[(2S)-1-(2-methyl-1,3-oxazole-4-carbonyl)pyrrolidin-2-yl]formamido}propanamido]-N-(1-{[(1S)-1-{[(1S)-1-({1-[(1-{[2-({1-[(dimethylamino)methyl]cyclobutyl}carbamoyl)ethyl]carbamoyl}-1-methylethyl)carbamoyl]-1-methylethyl}carbamoyl)-3-methylbutyl]carbamoyl}-3-methylbutyl]carbamoyl}-1-methylethyl)-4-methylpentanamide] (HELM PEPTIDE1{[Cc1nc(C(=O)[*:2])co1].P.[Cha].L.[Aib].L.L.[Aib].[Aib].[bAla].[CN(C)CC1(N[*:1])CCC1]}$$$$V2.0), in [1], the IC50 is 1.3 nM. For the same compound, in data set [4], the IC50 at 68 h is 6850 nM. The “MIC” value in [3] was 4 µg/mL (≈ 3.47 µM); in data set [5], 32 µg/mL (≈ 27.7 µM).

For `CC(=O)O[C@H]1C[C@@]2(C)[C@@H](C[C@@H](O)[C@H]3[C@@]4(C)CC[C@@H](O)[C@@H](C)[C@@H]4CC[C@@]32C)/C1=C(\CCC=C(C)C)C(=O)O` [Fusidic acid, fusidic acid, reference compound], in data set [6], the “Decrease (%) in CFU/skin vs vehicle control” value was 99% and the “LogCFU/skin after 25 hours (Standard error of the mean − SEM)” value is 4.82 (0.26) LogCFU/skin.

With `CC(=O)NC[C@H]1CN(c2ccc(N3CCOCC3)c(F)c2)C(=O)O1` [Linezolid, reference compound], the MIC in data set [7], in [8], in data set [9] and in data set [10] was 2 µg/mL (≈ 5.93 µM) in each case.

As for `COc1cc([C@@H]2c3cc4c(cc3[C@H](O)[C@H]3COC(=O)[C@H]23)OCO4)cc(OC)c1OC` [Podophyllotoxin, reference compound], the IC50 in the data set on rat myoblast cells (L6) (Rattus norvegicus, Myoblast, read-out: IC50 Concurrent (nM)) stood at 19.3 nM; in the data set on rat myoblast cells (L6) (Rattus norvegicus, Myoblast, read-out: IC50 of reference drug), 50 ± 10 nM.

The values above are taken from patent US20240174714A1, “TREATMENT OF SKIN DISORDERS” (priority 2021, published 2024).
